{"source": "the supplement of paper PMC10307832", "assay_in_all_cases": "relative viability (nuclei count vs DMSO), 5 days (fraction); higher = more cells survive", "key": {"[1]": {"test_system": "IA-LM", "procedure,_shortened": "(§1)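 For relative viability, nuclei counts in treated wells were divided by those in vehicle wells. Lung cancer cell lines had been pin-tool dosed in 1536-well plates the day after seeding and cultured for 5 days, then fixed and stained in one step (final 0.05% Triton X-100, 1% formaldehyde, 1 ug/ml Hoechst) and imaged at 4×. Doses were one drug alone or a fixed anchor-drug dose plus five library-drug doses (not always all listed) in √10 steps, and values are duplicate-plate medians.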"}, "[2]": {"test_system": "A549", "procedure,_shortened": "as §1"}, "[3]": {"test_system": "NCI-H1703", "procedure,_shortened": "as §1"}, "[4]": {"test_system": "Calu-6", "procedure,_shortened": "as §1"}, "[5]": {"test_system": "EBC-1", "procedure,_shortened": "as §1"}, "[6]": {"test_system": "NCI-H1563", "procedure,_shortened": "as §1"}, "[7]": {"test_system": "NCI-H1299", "procedure,_shortened": "as §1"}, "[8]": {"test_system": "NCI-H522", "procedure,_shortened": "as §1"}, "[9]": {"test_system": "NCI-H2342", "procedure,_shortened": "as §1"}, "[10]": {"test_system": "SW 900", "procedure,_shortened": "as §1"}, "[11]": {"test_system": "NCI-H1648", "procedure,_shortened": "as §1"}}, "data": [{"smiles": "O=c1[nH]c2ccccc2n1C1CCN(CCCC(c2ccc(F)cc2)c2ccc(F)cc2)CC1", "note": "[Pimozide] + C[C@]1(O)C[C@@H](c2nc(-c3ccc4ccc(-c5ccccc5)nc4c3)c3c(N)nccn32)C1 [Linsitinib] (partner 1 µM)", "values": [{"measurement": "relative viability", "setting": "[1]; first compound 0.08 µM", "result": 0.652}, {"measurement": "relative viability", "setting": "[1]; first compound 0.253 µM", "result": 0.566}, {"measurement": "relative viability", "setting": "[1]; first compound 0.8 µM", "result": 0.356}, {"measurement": "relative viability", "setting": "[1]; first compound 2.53 µM", "result": 0.456}, {"measurement": "relative viability", "setting": "[1]; first compound 8 µM", "result": 0.759}, {"measurement": "relative viability", "setting": "[2]; first compound 0.08 µM", "result": 0.426}, {"measurement": "relative viability", "setting": "[2]; first compound 0.253 µM", "result": 0.497}, {"measurement": "relative viability", "setting": "[2]; first compound 0.8 µM", "result": 0.627}, {"measurement": "relative viability", "setting": "[2]; first compound 2.53 µM", "result": 0.548}, {"measurement": "relative viability", "setting": "[2]; first compound 8 µM", "result": 0.619}, {"measurement": "relative viability", "setting": "[3]; first compound 0.08 µM", "result": 0.637}, {"measurement": "relative viability", "setting": "[3]; first compound 0.253 µM", "result": 0.544}, {"measurement": "relative viability", "setting": "[3]; first compound 0.8 µM", "result": 0.637}, {"measurement": "relative viability", "setting": "[3]; first compound 2.53 µM", "result": 0.514}, {"measurement": "relative viability", "setting": "[3]; first compound 8 µM", "result": 0.553}, {"measurement": "relative viability", "setting": "[4]; first compound 0.08 µM", "result": 0.986}, {"measurement": "relative viability", "setting": "[4]; first compound 0.253 µM", "result": 0.94}, {"measurement": "relative viability", "setting": "[4]; first compound 0.8 µM", "result": 0.843}, {"measurement": "relative viability", "setting": "[4]; first compound 2.53 µM", "result": 0.881}, {"measurement": "relative viability", "setting": "[4]; first compound 8 µM", "result": 0.913}, {"measurement": "relative viability", "setting": "[5]; first compound 0.08 µM", "result": 0.867}, {"measurement": "relative viability", "setting": "[5]; first compound 0.253 µM", "result": 0.844}, {"measurement": "relative viability", "setting": "[5]; first compound 0.8 µM", "result": 0.766}, {"measurement": "relative viability", "setting": "[5]; first compound 2.53 µM", "result": 0.821}, {"measurement": "relative viability", "setting": "[5]; first compound 8 µM", "result": 0.892}, {"measurement": "relative viability", "setting": "[6]; first compound 0.08 µM", "result": 1.12}, {"measurement": "relative viability", "setting": "[6]; first compound 0.253 µM", "result": 1.19}, {"measurement": "relative viability", "setting": "[6]; first compound 0.8 µM", "result": 1.35}, {"measurement": "relative viability", "setting": "[6]; first compound 2.53 µM", "result": 1.16}, {"measurement": "relative viability", "setting": "[6]; first compound 8 µM", "result": 0.861}, {"measurement": "relative viability", "setting": "[7]; first compound 0.08 µM", "result": 0.949}, {"measurement": "relative viability", "setting": "[7]; first compound 0.253 µM", "result": 0.945}, {"measurement": "relative viability", "setting": "[7]; first compound 0.8 µM", "result": 0.923}, {"measurement": "relative viability", "setting": "[7]; first compound 2.53 µM", "result": 0.899}, {"measurement": "relative viability", "setting": "[7]; first compound 8 µM", "result": 0.949}]}, {"smiles": "O=C(O)CCCCC(CCSCc1ccccc1)SCc1ccccc1", "note": "(stereo not drawn) [CPI-613] + C[C@@H](Oc1cc(-c2cnn(C3CCNCC3)c2)cnc1N)c1c(Cl)ccc(F)c1Cl [Crizotinib] (partner 1 µM)", "values": [{"measurement": "relative viability", "setting": "[1]; first compound 5 µM", "result": 0.584}, {"measurement": "relative viability", "setting": "[1]; first compound 15.81 µM", "result": 0.549}, {"measurement": "relative viability", "setting": "[1]; first compound 50 µM", "result": 0.621}, {"measurement": "relative viability", "setting": "[1]; first compound 158.11 µM", "result": 0.454}, {"measurement": "relative viability", "setting": "[1]; first compound 500 µM", "result": 0.22}, {"measurement": "relative viability", "setting": "[2]; first compound 5 µM", "result": 0.738}, {"measurement": "relative viability", "setting": "[2]; first compound 15.81 µM", "result": 0.595}, {"measurement": "relative viability", "setting": "[2]; first compound 50 µM", "result": 0.526}, {"measurement": "relative viability", "setting": "[2]; first compound 158.11 µM", "result": 0.191}, {"measurement": "relative viability", "setting": "[2]; first compound 500 µM", "result": 0.145}, {"measurement": "relative viability", "setting": "[3]; first compound 5 µM", "result": 0.582}, {"measurement": "relative viability", "setting": "[3]; first compound 15.81 µM", "result": 0.487}, {"measurement": "relative viability", "setting": "[3]; first compound 50 µM", "result": 0.531}, {"measurement": "relative viability", "setting": "[3]; first compound 158.11 µM", "result": 0.31}, {"measurement": "relative viability", "setting": "[3]; first compound 500 µM", "result": 0.284}, {"measurement": "relative viability", "setting": "[4]; first compound 5 µM", "result": 0.802}, {"measurement": "relative viability", "setting": "[4]; first compound 15.81 µM", "result": 0.622}, {"measurement": "relative viability", "setting": "[4]; first compound 50 µM", "result": 0.741}, {"measurement": "relative viability", "setting": "[4]; first compound 158.11 µM", "result": 0.556}, {"measurement": "relative viability", "setting": "[4]; first compound 500 µM", "result": 0.346}, {"measurement": "relative viability", "setting": "[5]; first compound 5 µM", "result": 0.179}, {"measurement": "relative viability", "setting": "[5]; first compound 15.81 µM", "result": 0.198}, {"measurement": "relative viability", "setting": "[5]; first compound 50 µM", "result": 0.197}, {"measurement": "relative viability", "setting": "[5]; first compound 158.11 µM", "result": 0.133}, {"measurement": "relative viability", "setting": "[5]; first compound 500 µM", "result": 0.167}, {"measurement": "relative viability", "setting": "[6]; first compound 5 µM", "result": 0.834}, {"measurement": "relative viability", "setting": "[6]; first compound 15.81 µM", "result": 0.877}, {"measurement": "relative viability", "setting": "[6]; first compound 50 µM", "result": 0.857}, {"measurement": "relative viability", "setting": "[6]; first compound 158.11 µM", "result": 0.477}, {"measurement": "relative viability", "setting": "[6]; first compound 500 µM", "result": 0.211}, {"measurement": "relative viability", "setting": "[7]; first compound 5 µM", "result": 0.926}, {"measurement": "relative viability", "setting": "[7]; first compound 15.81 µM", "result": 0.942}, {"measurement": "relative viability", "setting": "[7]; first compound 50 µM", "result": 0.944}, {"measurement": "relative viability", "setting": "[7]; first compound 158.11 µM", "result": 0.889}, {"measurement": "relative viability", "setting": "[7]; first compound 500 µM", "result": 0.861}]}, {"smiles": "O=c1[nH]c2ccccc2n1C1CCN(CCCC(c2ccc(F)cc2)c2ccc(F)cc2)CC1", "note": "[Pimozide] + CC(=O)Nc1cccc(-n2c(=O)n(C3CC3)c(=O)c3c(Nc4ccc(I)cc4F)n(C)c(=O)c(C)c32)c1 [Trametinib] (partner 0.02 µM)", "values": [{"measurement": "relative viability", "setting": "[8]; first compound 0.08 µM", "result": 0.738}, {"measurement": "relative viability", "setting": "[8]; first compound 0.253 µM", "result": 0.751}, {"measurement": "relative viability", "setting": "[8]; first compound 0.8 µM", "result": 0.733}, {"measurement": "relative viability", "setting": "[8]; first compound 2.53 µM", "result": 0.746}, {"measurement": "relative viability", "setting": "[8]; first compound 8 µM", "result": 0.811}, {"measurement": "relative viability", "setting": "[9]; first compound 0.08 µM", "result": 0.661}, {"measurement": "relative viability", "setting": "[9]; first compound 0.253 µM", "result": 0.872}, {"measurement": "relative viability", "setting": "[9]; first compound 0.8 µM", "result": 0.676}, {"measurement": "relative viability", "setting": "[9]; first compound 2.53 µM", "result": 0.826}, {"measurement": "relative viability", "setting": "[9]; first compound 8 µM", "result": 0.759}, {"measurement": "relative viability", "setting": "[10]; first compound 0.08 µM", "result": 0.743}, {"measurement": "relative viability", "setting": "[10]; first compound 0.253 µM", "result": 0.801}, {"measurement": "relative viability", "setting": "[10]; first compound 2.53 µM", "result": 0.72}, {"measurement": "relative viability", "setting": "[10]; first compound 8 µM", "result": 0.802}, {"measurement": "relative viability", "setting": "[11]; first compound 0.08 µM", "result": 0.423}, {"measurement": "relative viability", "setting": "[11]; first compound 0.8 µM", "result": 0.34}, {"measurement": "relative viability", "setting": "[11]; first compound 2.53 µM", "result": 0.373}, {"measurement": "relative viability", "setting": "[11]; first compound 8 µM", "result": 0.416}]}]}
